In publication PMC8537218, “Discovery of a Novel Class of Norovirus Inhibitors with High Barrier of Resistance” (Pharmaceuticals, 2021):
Read-outs that look alike come from different tables or passages of the source.

Columns and labels:
MNV = experiment: Time-of-drug-addition assay (TOA) in MNV-infected RAW 264.7 cells; format: cell-based, Murine norovirus; details: time-of-addition experiment
Method: RAW 264.7 cells (4 × 10^5 cells/mL) were infected with MNV (MOI of 1). After 1 h at 4 °C, cells were washed with cold (4 °C) DMEM to remove unbound viruses. Cells were incubated at 37 °C to start the infection. To study the replication kinetics of MNV supernatant and cells were harvested, from untreated cultures, every 2 h until 24 h post-infection (pi) and viral RNA was quantified by RT-qPCR. In parallel, another set of infected cultures were treated with compound. The compound was added at 2 h intervals and cultures were further incubated until 24 h pi, supernatant and cells were collected separately for determination of the viral RNA by RT-qPCR. The isolation of the extracellular MNV RNA from cell culture supernatant was done by the NucleoSpin RNA Virus Kit (Macherey–Nagel), and the intracellular RNA was extracted from cells by the RNeasy kit (Qiagen).

[1] = tested on: MNV.CW3/S131T and MNV.CW3/Y154F; experiment: Antiviral assay on reverse-engineered MNV.CW3 mutant viruses (S131T, Y154F); format: cell-based, Murine norovirus; details: single mutations S131T or Y154F in MNV backbone
Method: The desired mutations were introduced into the MNV.CW3 cDNA clones using the QuikChange II XL mutagenesis kit (Agilent) according to the manufacturer’s instructions. The presence of the desired mutation in the produced construct was confirmed by PCR and sequencing was done by Macrogen Inc. Sequences were analyzed and mutations were detected using the Geneious software.
The MNV.CW3 mutant viral stocks were obtained by transfecting the mutated plasmid pMNV CW3 (kindly provided by Prof. Wobus, University of Michigan) in Huh 7 Lunet cells expressing the MNV receptor CD300lf (kindly provided by Prof. Taube, University of Lübeck). Huh-7 CD300lf cells were cultured under selective pressure of G418. The Huh-7 CD300lf cells were seeded in 6-well plates at a density of 2 × 10^5 cells/mL in 2.5 mL of complete media. After 24 h, the cells were transfected with 2.5 μg of pMNV CW3 plasmid DNA using the TransIT mRNA Transfection Kit (Mirus Bio Corporation) according to the manufacturer’s protocol. Red fluorescent protein (RFP) was used as a positive control for transfection. Transfected cells were incubated for 48 h, cells underwent two freeze thaw cycles and the virus was harvested from the supernatants after centrifugation (10 min, 1000× g) and stored at −80 °C. Virus stocks were passaged for three times on BV-2 cells and followed by two consecutive passages on RAW 264.7 cells. Viral titers were determined by serial dilutions on RAW 264.7 cells seeded in 96-well plates.
The assessment of the antiviral activity of compounds on resistant viruses was performed similarly as the regular antiviral assay on MNV. First, the titer of the resistant viruses was determined by endpoint titration. A concentration of 30× TCID50 was used for each virus in the antiviral assays. RAW 264.7 cells (1 × 10^4 cells/well) were seeded in the presence of a dilution series of compounds and infected. Antiviral activity was determined using the MTS method. The 50% effective concentration (EC50) was defined as the compound concentration that protected 50% of the cells from CPE.

[2] = tested on: HuNoV GI.1 replicon (Norwalk replicon); experiment: HuNoV GI.1 replicon assay in HG23 cells (RT-qPCR); format: cell-based, Human norovirus; details: Norovirus, HG23, 72 h, Norwalk replicon (human GI.1), HG23 cells, 72 h, replicon RNA by RT-qPCR; read-out: HuNoV Replicon EC50 ± SD
Method: HuNoV GI.1 replicon: The experiment was performed as described earlier with minor modifications. In short, HG23 cells (7.5 × 10^2 cells/well) were seeded into the wells of a 96-well plate without G418 (Geneticin Selective Antibiotic). After 24 h of incubation, serial dilutions of compounds were added. Cells were further incubated for 72 h, then cells were collected for RNA load quantification by RT-qPCR. To determine relative levels of Norwalk virus replicon RNA, β-actin was used as a normalizer and ratios were calculated as previously described.

[3] = tested on: Murine norovirus type 1, strain CW1; experiment: MNV-induced CPE reduction assay (MTS read-out) in RAW 264.7 cells; format: cell-based; details: MNV CW1, RAW 264.7 cells, read-out: MNV EC50 ± SD
Method: (§1) Norovirus: The experiment was performed as described earlier. In short, RAW 264.7 cells (1 × 10^4 cells/well) were infected with MNV.CW1 in the presence of a dilution series of compounds. Antiviral activity and cytotoxicity were determined using a colometric assay using 3-(4,5-dimethylthiazol-2-yl)-5-(3-carboxymethoxyphenyl)-2-(4-sulfophenyl)-2H-tetrazolium (MTS). The 50% effective concentration (EC50) was defined as the compound concentration that protected 50% of the cells from CPE. The cell viability % was calculated as (ODtreated/ODCC) […] and the 50% cytotoxic concentration (CC50) was defined as the compound concentration that reduces the number of viable cells by 50%.

[4] = Cytotoxicity assay (MTS) on non-infected RAW 264.7 cells; format: cell-based; details: mouse, non-infected RAW 264.7 cells, cytotoxic concentration to induce 50% death of non-infected RAW 264.7 cells; read-out: MNV CC50 ± SD
Method: as §1

RAW 264.7 cells = experiment: as above; format: cell-based; details: RAW 264.7 cells
Method: as §1

[5] = RAW264.7, concentration inhibiting norovirus induced cell death (CPE) by 50%

## C[C@@]1(O)[C@H](O)[C@@H](CO)O[C@H]1n1ccc(N)nc1=O [2CMC, 2′-C-methylcytidine, reference compound]
MNV
  step of the MNV replication cycle at which the compound acts: onset of the viral genome replication
[1]
  shift in EC50 / sensitivity of mutant viruses: remained equally sensitive

## Cc1cc(C)cc(S(=O)(=O)c2c(C(=O)Nc3ccc(CO)cc3)[nH]c3ccc(Cl)cc23)c1 [compound 1, 5-Chloro-3-((3,5-dimethylphenyl)sulfonyl)-N-(4-(hydroxymethyl)phenyl)-1H-indole-2-carboxamide]
other
  melting point: 220 to 221 °C
[2]
  EC50: ~2 µM
[3]; [5]
  EC50: 0.5 ± 0.1 µM
[3]; concentration inhibiting norovirus induced cell death (CPE) by 50%
  EC50: 0.52 ± 0.07 µM
[4]
  CC50: > 100 µM

## Cc1cc(C)cc(S(=O)(=O)c2c(C(=O)NCc3ccccc3)[nH]c3ccc(Cl)cc23)c1 [compound 2, N-Benzyl-5-chloro-3-((3,5-dimethylphenyl)sulfonyl)-1H-indole-2-carboxamide]
[2]
  EC50: 3.66 ± 0.66 µM
[3]; [5]
  EC50: > 100 µM
[4]
  CC50: > 100 µM

## Cc1cc(C)cc(S(=O)(=O)c2c(C(=O)NCCO)[nH]c3ccc(Cl)cc23)c1 [compound 3, 5-Chloro-3-((3,5-dimethylphenyl)sulfonyl)-N-(2-hydroxyethyl)-1H-indole-2-carboxamide]
[2]
  EC50: 47.7 ± 3.39 µM
[3]; [5]
  EC50: > 100 µM
[4]
  CC50: 88.7 ± 4.75 µM

## Cc1cc(C)cc(S(=O)(=O)c2c(C(=O)NCc3ccc(O)cc3)[nH]c3ccc(Cl)cc23)c1 [compound 4, 5-Chloro-3-((3,5-dimethylphenyl)sulfonyl)-N-(4-hydroxybenzyl)-1H-indole-2-carboxamide]
other
  melting point: 236 to 237 °C
[2]
  EC50: 88.3 ± 4.75 µM
[3]; [5]
  EC50: > 100 µM
RAW 264.7 cells
  cytotoxicity (in words): highly cytotoxic
[4]
  CC50: 3.48 ± 1.1 µM

## O=C(Nc1ccc(CO)cc1)c1[nH]c2ccc(Cl)cc2c1S(=O)(=O)c1ccccc1 [compound 5, 5-Chloro-N-(4-(hydroxymethyl)phenyl)-3-(phenylsulfonyl)-1H-indole-2-carboxamide]
other
  melting point: 152 to 155 °C
[3]; [5]
  EC50: > 100 µM
[4]
  CC50: 34.9 ± 5.03 µM

## Cc1cc(C)cc(Cc2c(C(=O)NCc3ccc(CO)cc3)[nH]c3ccc(Cl)cc23)c1 [compound 7, 5-Chloro-3-(3,5-dimethylbenzyl)-N-(4-(hydroxymethyl)benzyl)-1H-indole-2-carboxamide]
other
  melting point: 171 to 174 °C
[2]
  EC50: 5.59 ± 2.47 µM
[3]; [5]
  EC50: 0.84 ± 0.22 µM
[4]
  CC50: 9.27 ± 6.6 µM

## Cc1cc(C)cc(C(=O)c2c(C(=O)NCc3ccc(CO)cc3)[nH]c3ccc(Cl)cc23)c1 [compound 8, 5-Chloro-3-(3,5-dimethylbenzoyl)-N-(4-(hydroxymethyl)benzyl)-1H-indole-2-carboxamide]
other
  melting point: 271 to 274 °C
[3]; [5]
  EC50: > 100 µM
[4]
  CC50: 7.97 ± 15.3 µM

## Cc1cc(C)cc(Sc2c(C(=O)NCc3ccc(CO)cc3)[nH]c3ccc(Cl)cc23)c1 [compound 9, 5-Chloro-3-((3,5-dimethylphenyl)thio)-N-(4-(hydroxymethyl)benzyl)-1H-indole-2-carboxamide]
other
  melting point: 212 to 215 °C
[2]
  EC50: 11.8 ± 8.4 µM
[3]; [5]
  EC50: 4.39 ± 4.78 µM
[4]
  CC50: 31.7 ± 8.01 µM

## O=C(NCc1ccc(CO)cc1)c1[nH]c2ccc(Cl)cc2c1S(=O)(=O)c1ccccc1 [compound 10, 5-Chloro-N-(4-(hydroxymethyl)benzyl)-3-(phenylsulfonyl)-1H-indole-2-carboxamide]
other
  melting point: 182 to 185 °C
[2]
  EC50: 18.5 ± 16.3 µM
[3]; [5]
  EC50: 0.63 ± 0.48 µM
[4]
  CC50: 25.7 ± 34.9 µM

## Cc1cc(C)cc(S(=O)(=O)c2c(C(=O)NCCc3ccc(O)cc3)[nH]c3ccc(Cl)cc23)c1 [compound 11, 5-Chloro-3-((3,5-dimethylphenyl)sulfonyl)-N-(4-hydroxyphenethyl)-1H-indole-2-carboxamide]
other
  melting point: 231 to 234 °C
[2]
  EC50: 27.5 ± 28.7 µM
[3]; [5]
  EC50: 36 ± 23.3 µM
RAW 264.7 cells
  cytotoxicity (in words): highly cytotoxic
[4]
  CC50: 8.49 ± 8.09 µM

## CCOC(=O)/C=C/[C@H](C[C@@H]1CCNC1=O)NC(=O)[C@@H](CC(=O)[C@@H](NC(=O)c1cc(C)on1)C(C)C)Cc1ccc(F)cc1 [rupintrivir]
[1]
  shift in EC50 / sensitivity of mutant viruses: remained equally sensitive
